Patent US12702649B2, “Method of treating cystic fibrosis airway disease” (priority 2016, dated 2026)
Entries after “also recorded” stand apart in the source; their conditions may differ. Where two headings read alike, the source gives them in different places.

Tests used:
[1] = test system: tracheal ASL of non-CF piglets; assay: Tracheal ASL pH of non-CF (wild type) newborn piglets after aerosolized buffer; assay type: in vivo, pig
Text: (§1) To measure pH in pigs in vivo, non-invasive dual lifetime referencing was used to interrogate a 3×3 mm planar optode (pH sensitive foil, PreSens GmbH) applied directly to the tracheal surface of anesthetized pigs (Pezzulo A A, Tang X X, Hoegger M J, Alaiwa M H, Ramachandran S, Moninger T O, et al. Reduced airway surface pH impairs bacterial killing in the porcine cystic fibrosis lung. Nature. 2012; 487(7405):109-13. Epub 2012/07/06. doi: 10.1038/nature11130. PubMed PMID: 22763554; PubMed Central PMCID: PMC3390761). pH-dependent polarized light phase shift was measured using a single channel pH meter (pH-1 mini; PreSens GmbH). The tip of the fiber optic pH meter was kept at the same constant distance from the tracheal surface in all samples and confirmed by recording the amplitude. Calibration before each set of measurements was done by measuring phase shift from flat filters soaked in standard pH buffers. All measurements were obtained in a humidified chamber at 37° C. and constant 5% CO2 to mimic physiologic conditions.
(§2) Pigs were initially sedated with Ketamine (20 mg/kg, IM injection) and Xylazine (2 mg/kg, IM injection) and anesthetized using Propofol (2 mg/kg, IV injection). The trachea was surgically exposed and accessed anteriorly. A small anterior window through the tracheal rings accessed a tracheal window to interventions and pH measurements. All studies obtained in a 100% humidified chamber at 37° C. and constant 5% CO2 to mimic physiologic conditions.

[2] = test system: nasal pH of healthy volunteers; assay: Nasal pH of healthy human volunteers after instillation; assay type: in vivo; conditions: for nasal pH: 250 μl of 0.3 M solution
Experimental: (§3) Prior to each study the pH probe was calibrated in buffer solutions of pH 6, 7 and 8 (VWR, West Chester, PA). Voltage was recorded with an Oakton pH6+ meter (Cole-Palmer, Vernon Hills, IL) and corrected to temperature. The probe was positioned at 6 cm from the most caudal aspect of the columella. The probe remained in position until the readings were stable. All measurements were taken from the right nostril and by the same operator. Subjects on intranasal medications (steroids or anticholinergics) or with history of nasal or sinus surgery were excluded from the study.

human CF airway cultures = assay: ASL viscosity in human CF airway cultures; assay type: cell-based
Text: (A) Effect of saline or THAM on ASL viscosity in humanCF airway cultures. […] Data are mean±SEM. n=6 individual donors/group. * p<0.05, t-test.
Two approaches are used to investigate the viscoelastic properties of airway mucus. […] Second, in airway epithelial cell cultures from non-CF and CF newborn pig and human donors, mucus viscosity (±THAM) is estimated by measuring the diffusion of fluorescent FITC-dextran with a FRAP assay and ASL/mucus pH using the pH indicator SNARF-1 (FIG. 11D&13A). Viscosity is directly correlated to diffusion. If the viscosity is high, FITC-dextran will slowly diffuse to the photo-bleached ASL areas.

S. aureus [3] = assay: CF sputum bacterial killing, bacteria-coated grids assay; assay type: cell-based, S. aureus (SH1000); conditions: for bacterial killing in human CF sputum: grid assay, compared to saline
Experimental: Adults diagnosed with CF were recruited. Patients were asked to swallow saliva and to expectorate all secretions during routine clinic visits. Sputum plugs were visually identified and separated from saliva, weighed and stored at −70° C. in small, tightly sealed containers to minimize water loss under needed. […] To guarantee adequate mixing of sputum with the different solutions, the mixture was homogenized (Sonic Dismembrator Model 100, Fisher Scientific) for 30 seconds. All experiments were conducted in a humidified chamber with constant 5% CO2.
To interrogate individual bacteria killing in CF sputum or in pigs, bacteria-coated grids assay were used (Pezzulo A A, Tang X X, Hoegger M J, Alaiwa M H, Ramachandran S, Moninger T O, et al. Reduced airway surface pH impairs bacterial killing in the porcine cystic fibrosis lung. Nature. 2012; 487(7405):109-13. Epub 2012/07/06. doi: 10.1038/nature11130. PubMed PMID: 22763554; PubMed Central PMCID: PMC3390761; Abou Alaiwa M H, Reznikov L R, Gansemer N D, Sheets K A, Horswill A R, Stoltz D A, et al. pH modulates the activity and synergism of the airway surface liquid antimicrobials beta-defensin-3 and LL-37. Proceedings of the National Academy of Sciences of the United States of America. 2014; 111(52):18703-8. doi: 10.1073/pnas.1422091112. PubMed PMID: 25512526; PubMed Central PMCID: PMC4284593). Gold grids (200 mesh, Ted Pella) were functionalized using a series of intervention: 100 mM 11-mercaptoundecanoic acid (MUA in 100% alcohol, Aldrich) for 60 min at room temperature, 1:1 mixture of 100 mM N-ethyl-N-(3-[…]) carbodiimide) (EDC) and 100 mM N-hydroxysuccinimide (NETS) for 30 min at room temperature, 0.1 mg/ml Neutravidin (Sigma) at 37° C. for 1 hour.
Two different strains of S. aureus were used (SH1000 a human strain for CF sputum killing studies and SA43 a porcine strain for pig studies). Bacteria were grown to mid-log phase, incubated with 0.2 mg/ml N-hydroxysulphosuccinimide (sulpho-NHS)-biotin for 60 min at room temperature, quenched with 100 mM glycine to bind excess free biotin and allowed to attach to Neutravidin-coated grids for 15 minutes prior to the experiment.
After bacteria-coated grids were exposed to pig trachea for 5 minutes or CF sputum for 15 minutes, they were immediately rinsed in phosphate buffered saline and stained with SYTO9/propidium iodide (Live/Dead BacLight Bacterial viability assay, Invitrogen), mounted on slides and imaged on a laser-scanning confocal microscope (Olympus FV1000). Live (green) and dead (red) bacteria were automatically counted using Image-based Tool for Counting Nuclei (ITCN 1.6, UCSB Center for Bio-Image Informatics, UC San Barbara) an ImageJ (U.S. National Institutes of Health, Bethesda, Maryland, USA) plugin.

[4] = test system: nasal epithelia of CF subjects
Text: Methods Mol Biol. 2011; 741:69-86. doi: 10.1007/978-1-61779-117-8_6. PubMed PMID: 21594779; PubMed Central PMCID: PMCPMC3760477).

[5] = test system: human non-CF/CF airway epithelial cultures; conditions: THAM (1 μl), pH at 0 & 15 m
Experimental: FIGS. 15A-15B. […] (A) THAM (1 μl) was applied to human n non-CF/CF airway epithelial cultures. pH was measured at 0 & 15 m with SNARF. Data are mean±SEM. n=6 donors/group. * p<0.05, t-test.

[6] = intravenous, cited from earlier work
[7] = Buffering capacity by acid titration; assay type: physicochemical; conditions: 0.3 M tromethamine titrated with 0.1 M HCl
Experimental: 100 mM HCl was delivered into 5 mL of buffer at a rate of 0.2 ml/min. Titration was carried out to endpoint of pH 3. The volume of HCl delivered was recorded and used to calculate the acid equivalents needed to […] pH by 1 unit or buffering capacity.

human subjects = conditions: 24 h after aerosolized nasal delivery
Experimental: as §3

[8] = test system: nasal pH of subjects with cystic fibrosis (CF)
Experimental: as §3

[9] = test system: tracheal ASL of CF piglets; conditions: 15 minutes after aerosolized tromethamine
Text: as §1
as §2, with “All studies obtained in a 100% humidified chamber at 37° C. and constant 5% CO2 to mimic physiologic conditions.” left out

non-CF newborn pig = conditions: PARI LC-PLUS nebulizer, distal mainstem bronchi
Text: THAM was aerosolized into a sedated, non-CF newborn pig with a PARI LC-PLUS® nebulizer, using a cone mask over the snout. After sedation, a pH probe was passed through the vocal cords and into the distal mainstem bronchi. ASL pH was continuously measured.

S. aureus [10] = conditions: 15 minutes after aerosolized tromethamine, compared to NaCl
Experimental: Pigs were initially sedated with Ketamine (20 mg/kg, IM injection) and Xylazine (2 mg/kg, IM injection) and anesthetized using Propofol (2 mg/kg, IV injection). The trachea was surgically exposed and accessed anteriorly. A small anterior window through the tracheal rings accessed a tracheal window to interventions and pH measurements. All studies obtained in a 100% humidified chamber at 37° C. and constant 5% CO2 to mimic physiologic conditions. […]

mice = test system: mice
Text: FIGS. 14A-14G. […] (A) BAL pH measured 3.5 hr after THAM inhalation. Mice were aerosolized with THAM (10× dose used in our prior human studies) or water (ctrl) in a whole-body exposure chamber for 3.5 hrs/d (5 d total). 3 d later mice were euthanized/studied. (B) BAL-total cell cts. (C) BAL-% alveolar macrophages. (D) BAL-LDH activity. […] (F) Airway resistance (FlexiVent). […] (G) Lung histology (HE). Data are mean±SEM. n=4-10/group. * p<0.05, t-test. Some SEM bars are hidden in mean bars.

coagulase-negative = conditions: aerosolized, non-CF subjects; cited from earlier work

SMILES: O=C([O-])O.[Na+] [NaHCO3]
- tracheal ASL pH ([1]; 250 μl of 200 mM NaHCO3 aerosolized onto exposed trachea): alkalinized ASL pH
- time for ASL pH to return to baseline ([1]; NaHCO3/HCO3− aerosol, non-CF piglet trachea): ≤ 30 minutes
- time for nasal pH to return to baseline ([2]; 250 μl of 2% (238 mM) NaHCO3): ≤ 60 minutes
- nasal ASL pH ([2]; 250 μl of 2% (238 mM) NaHCO3 aerosolized into the nose): increased ASL pH
- effect of a higher concentration on the duration of the rise in nasal pH ([2]; NaHCO3 increased to 5% or 7%): no additional effect
- ASL viscosity (human CF airway cultures): reduced viscosity
- bacterial killing in human CF sputum (S. aureus [3]): improved bacterial killing to non-CF levels
- CF sputum ability to kill S. aureus (S. aureus [3]; sputum mixed 1:1 v/v with 200 mM NaHCO3, compared to equimolar NaCl, grids recovered after 15 minutes): increased the CF sputum ability to kill S. aureus
- effect of increasing HCO3− concentration on hBD-3 antimicrobial activity (S. aureus Xen-29; constant pH 7.5, absence of Ca2+ & Mg2+, 1 μg/ml hBD-3, NaHCO3 10-80 mM): slightly inhibited
- effect of increasing HCO3− concentration on LL-37 antimicrobial activity (S. aureus Xen-29; constant pH 7.5, absence of Ca2+ & Mg2+, 100 μm/ml LL-37, NaHCO3 10-80 mM): slightly inhibited
- effect of increasing HCO3− concentration on hBD-3 antimicrobial activity (S. aureus Xen-29; constant pH 7.5, presence of 1 mM Ca2+ & 1 mM Mg2+, 5 μg/ml hBD-3): inhibited
- effect of increasing HCO3− concentration on LL-37 antimicrobial activity (S. aureus Xen-29; constant pH 7.5, presence of 1 mM Ca2+ & 1 mM Mg2+, 100 μm/ml LL-37): inhibited

SMILES: NC(CO)(CO)CO [tromethamine, tris(hydroxymethyl)aminomethane]
- tracheal ASL pH immediately after administration ([1]; 250 μl 0.3M tromethamine): raised pH
- tracheal ASL pH at 60 minutes ([1]; 250 μl 0.3M tromethamine, 60 minutes): still higher than baseline
- nasal voltage ([4]; baseline vs 30 min after 250 μl 0.3 M tromethamine): no effect
- epithelial barrier integrity ([4]; inferred from nasal voltage): no disruption
- alkalinization of CF vs non-CF epithelia [5]: Alkalinizes CF Epithelia Greater than Non-CF
- persistence of serum alkalinizing effect ([6]; serum): 16 to 48 h
- half-life when given intravenously [6]: long half-life
- nasal pH [2]: alkalinized the nasal pH
- pH change at 30 min as share of the maximal pH response ([2]; 30 min after THAM aerosolization, non-CF noses): 30%
- ASL viscosity (human CF airway cultures): reduced viscosity
- additional buffering range at lower pH values [7]: 3-6 pH
- adverse effects reported (human subjects): no adverse effects
- nasal pH ([8]; 250 μl tromethamine): increased nasal pH
- duration of increased nasal pH ([8]; 250 μl tromethamine, 30 minutes was the total duration of the experiment): 30 minutes
- pH change at 30 min as share of the maximal pH response ([8]; 30 min after THAM aerosolization into the nose of people with CF): ~ 80%
- tracheal ASL pH [9]: increased pH
- airway alkalinization over time (non-CF newborn pig): Prolonged Airway Alkalinization
- ASL bacterial killing (S. aureus [10]; listed as THAM): acutely restored ASL bacterial killing
- ASL bacterial killing (S. aureus [10]; listed as Tromethamine): enhanced bacterial killing
- bacterial killing in human CF sputum (S. aureus [3]): improved bacterial killing to non-CF levels; also recorded: acutely restored ASL bacterial killing
- ability of CF sputum to kill S. aureus (S. aureus [3]; sputum mixed 1:1 (w/v) with 300 mM tromethamine ± 1197 mM (7%) NaCl, compared to hypertonic saline alone): increased the ability of CF sputum to kill S. aureus
- airway (BAL) pH (mice; BAL pH 3.5 hr after THAM inhalation): raised the airway pH
- BAL other proinflammatory cytokines, THAM vs water control (mice; mouse, in vivo): no difference
- clinical signs, gross pathology, BAL cell counts/cytokines/LDH, bronchoconstriction, histopathology (mice; mouse, in vivo): no adverse treatment related findings
- tolerability of THAM exposure (mice; mouse, in vivo): well tolerated
- effect on hBD-3 antimicrobial activity (S. aureus Xen-29; 10 mM tromethamine (pH 8.65) vs 10 mM xylitol (pH 7.02), 1 μg/ml hBD-3, ionic strength 125 mM): enhanced
- effect on LL-37 antimicrobial activity (S. aureus Xen-29; 10 mM tromethamine (pH 8.65) vs 10 mM xylitol (pH 7.02), 10 μg/ml LL-37, ionic strength 125 mM): enhanced

SMILES: OC[C@@H](O)[C@H](O)[C@@H](O)CO [xylitol]
- nasal coagulase-negative S. aureus colonization (coagulase-negative): decreased
- nasal pH [2]: no effect
